#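 Exposure lasted 48 hours, with cells grown in 96-well plates and compounds tested at five concentrations. GI50 is the concentration that inhibits growth by half. The concentration for full growth arrest is given as TGI.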
# How the values were obtained:
# Assay in all cases: DTP human tumour cell line panel, 48 h
# [1] = test system: SF-268 CNS
# [2] = test system: A549 NSCLC
# [3] = test system: EKVX NSCLC
# [4] = test system: NCI-H226 lung
# [5] = test system: HCT-15 colon
# [6] = test system: 786-0 renal
# [7] = test system: HOP-62 NSCLC
# [8] = test system: MDA-MB-435
# [9] = test system: UACC-62 melanoma
# [10] = test system: SK-OV-3 ovarian
Compound,TGI [1] [µM],TGI [2] [µM],TGI [3] [µM],TGI [4] [µM],TGI [5] [µM],TGI [6] [µM],TGI [7] [µM],GI50 [8] [µM],TGI [8] [µM],GI50 [5] [µM],TGI [9] [µM],TGI [10] [µM],GI50 [7] [µM],GI50 [1] [µM],GI50 [9] [µM],GI50 [2] [µM],GI50 [10] [µM],GI50 [3] [µM],GI50 [4] [µM]
Cc1cc(OC(=O)NCn2cc(-c3ccccc3)nn2)ccc1Cl,> 100,> 100,> 100,> 100,> 100,> 100,> 100,–,–,–,–,–,–,–,–,–,–,–,–
Cc1cc2c([nH]c3ccccc32)c(O)c1-c1c(C)cc2c([nH]c3ccccc32)c1O,27.4,26.8,27.7,36.5,23.8,26.6,31.5,15,28.2,10.1,–,–,–,–,–,–,–,–,–
NCC(O)CSCc1ccc(Cl)cc1 (stereo not drawn),> 100,> 100,–,> 100,> 100,> 100,> 100,–,> 100,–,> 100,> 100,–,–,–,–,–,–,–
COc1ccc(Nc2ccc3ccccc3c2-c2c(O)ccc3ccccc23)cc1,35.9,–,31.8,30.5,38.5,32.2,25.1,–,20.3,–,> 100,–,–,–,–,–,–,–,–
COc1cccc(N[C@@H]2c3cc4c(cc3C(c3cc(OC)c(O)c(OC)c3)[C@H]3C(=O)OCC32)OCO4)c1 (stereo partly drawn),12.8,2.14,14.9,2.05,2.39,–,0.671,–,–,–,2.83,17.9,–,–,–,–,–,–,–
Cc1cc(=O)[nH]c(NN2C(Cl)C(=O)C2c2ccc([N+](=O)[O-])cc2)n1 (stereo not drawn),41,> 100,78.8,–,22.5,–,23,–,–,–,11.5,–,–,–,–,–,–,–,–
O=c1oc(C(C(F)(F)F)C(F)(F)F)nc2ccccc12,–,> 100,> 100,> 100,> 100,> 100,> 100,–,> 100,–,–,> 100,–,–,–,–,–,–,–
COc1cc(C2c3cc4c(cc3C3OC[C@@H]2C3CO)OCO4)cc(OC)c1OC (stereo partly drawn),> 100,> 100,> 100,47,71.5,> 100,> 100,–,51.1,–,–,> 100,47.4,–,–,–,–,–,–
Cc1nnc2n1N=C(c1ccc(Cl)cc1Cl)/C(=C/c1ccc(-c3ccc([N+](=O)[O-])cc3Cl)o1)S2,66.7,> 100,> 100,41.1,42.9,–,> 100,13.5,29,16.9,39.9,> 100,> 100,24.3,18.4,31.7,> 100,61.2,20.7
COc1ccc2cc(CNCCCCCCNCc3ccc4cc(OC)ccc4c3)ccc2c1,–,3.44,2.74,3.49,1.39,2.48,3.07,–,0.497,–,2.8,3.24,–,–,–,–,–,–,–
CCOP(=O)(O)CN1CCNCCN(CP(=O)(O)OCC)CCNCC1,–,> 100,> 100,> 100,> 100,> 100,> 100,–,> 100,–,> 100,> 100,–,–,–,–,–,–,–
CN=C(/N=c1\ssc(=NC)n1C)N(C)C,> 100,> 100,> 100,> 100,–,> 100,–,–,–,–,> 100,> 100,–,–,–,–,–,–,–
C=CCP(=O)(CC=C)C(Cl)Cl,–,> 100,–,> 100,> 100,–,> 100,–,–,–,–,> 100,–,–,–,–,–,–,–
CC(=O)Nc1ccc(OC/C(N)=N/NC(=O)c2ccncc2)cc1,> 100,> 100,> 100,–,> 100,> 100,> 100,–,> 100,–,> 100,> 100,–,–,–,–,–,–,–
CC(C)(C)n1c(=O)[nH]c(=O)n1C(C)(C)C,–,> 100,> 100,> 100,> 100,> 100,> 100,–,–,–,> 100,> 100,–,–,–,–,–,–,–
CN(C)Cc1cc(C(=O)/C=C/c2ccccc2)cc(CN(C)C)c1O,> 100,68.9,> 100,78.5,> 100,> 100,> 100,–,> 100,–,–,–,–,–,–,–,–,–,–
O=C(Cc1ccc(Cl)c(Cl)c1)NCC1(N2CCCCC2)CCCCC1,> 100,> 100,> 100,–,> 100,> 100,> 100,–,> 100,–,42,> 100,–,–,–,–,–,–,–
COc1cccc(N=N/C(=N\NC(=O)c2ccc(C)cc2)c2ccc(N(CCC#N)CCC#N)cc2C)c1,> 100,> 100,> 100,> 100,> 100,> 100,> 100,–,> 100,–,–,> 100,–,–,–,–,–,–,–
Cc1nc(N)c(N2CCN(CN)CC2)c(=O)[nH]1,> 100,> 100,> 100,> 100,> 100,> 100,> 100,–,> 100,–,–,–,–,–,–,–,–,–,–
CCCSc1ccc2[nH]c(N3C(=O)/C(=C/c4ccccc4)N=C3c3ccccc3)cc2c1,> 50,> 50,> 50,–,> 50,> 50,–,–,21.3,–,> 50,–,–,–,–,–,–,–,–
N#Cc1cc2c(n(C3OC(CO)C(O)C(O)C3O)c1=S)CCCCCC2 (stereo not drawn),> 100,> 100,–,> 100,> 100,> 100,> 100,–,> 100,–,> 100,–,–,–,–,–,–,–,–
NCc1cccc(O)c1O,> 100,> 100,> 100,> 100,> 100,> 100,> 100,–,–,–,> 100,> 100,–,–,–,–,–,–,–
C/C(=N\NC(=S)N(C)C)c1cccnn1,–,–,10.4,4.83,> 100,> 100,> 100,–,> 100,–,4.89,> 100,–,–,–,–,–,–,–
Cc1ccccc1-c1nc2c(C(=O)NCCN(C)C)cccc2[nH]1,> 100,> 100,> 100,48,> 100,–,> 87.3,–,–,–,> 100,> 100,–,–,–,–,–,–,–
COc1ccc(-c2oc3cc(O)cc(O)c3c(=O)c2OC)cc1,78.2,> 100,> 100,–,> 100,–,> 100,–,> 100,–,> 100,> 100,–,–,–,–,–,–,–

# From PubChem BioAssay (NCI)
